Measured values from publication PMC7721091 (Cancer Biology & Medicine, 2020).
Several values for one entry are separate records, joined by “and”; a condition that tells them apart may be missing. Equal values may be shown once.

What was measured:
P-gp = P-gp (Homo sapiens, UniProt P08183); details: MDCK monolayers transfected with P-gp; among cyclosporin A, elacridar, tariquidar; cited from earlier work
[1] = Plasma PK of cyclodextrin-HM co-treated with PTX; format: in vivo, C57BL/6 mice; details: at 72 h, co-treatment with PTX
Protocol: Plasma samples were collected at 72 h for the analysis of PK parameters in PTX-HM treatment (Figure 4D).

ABCB1 = details: human 293FRT embryonic kidney cells stably expressing ABCB1; cited from earlier work
[2] = Plasma PK of cyclodextrin-HM after i.v. injection; format: in vivo, C57BL/6 mice; details: C57BL/6, mouse, iv, 20 mg/kg
Protocol: Plasma samples were obtained from mice at 0, 0.083, 0.25, 0.5, 1, 2, 4, 8, and 24 h time points. Non-compartmental analysis of plasma data after intravenous bolus input was used to determine standard PK parameters of analytes. Administration i.v. has the advantage of allowing for rapid exposure as well as precise control of dose and administration of the tested therapeutic compounds[12], and oral administration may be less efficient with low drug bioavailability, owing to drug adsorption and metabolization in the liver. […] Mice were then anesthetized through intraperitoneal injection of pentobarbital (50 mg/kg) before collection of blood for further analysis.

[3] = test system: U-87 MG-Luc2 glioma cells; experiment: Orthotopic brain tumor model; format: in vivo, BALB/c nude mice; details: for MST (median survival time): vehicle MST 33; for ILS (increase in lifespan): no HM
Protocol: An orthotopic brain tumor model was established by Wuxi Apptec. Briefly, female BALB/c nude mice 6–8 weeks of age and weighing 18–22 g (Shanghai Sippr-BK Laboratory Animal Co. Ltd., Shanghai, China) were anesthetized through intraperitoneal injection of pentobarbital sodium (80 mg/kg) and subcutaneously administered 0.1 mg/kg buprenorphine before and after surgery for analgesia. The anesthetized mice were intracranially (i.c.) inoculated with U-87 MG-Luc2 cells (2×10^5 cells in 2 μL PBS) in the right frontal lobe. […] The physiological condition of the animals was assessed daily. The animals were pre-anesthetized with a mixture gas of oxygen and isoflurane (1%–3%) to achieve a complete anesthetic state before bioluminescence measurements. Tumor growth was monitored with an in vivo imaging system (Lumina III; PerkinElmer, Inc.), and the survival of all animals was recorded for the calculation of the median survival time (MST) for each group. The increase in lifespan (ILS) was determined as the ratio of the MST of the treatment group to that of the control group, expressed as the percentage increase over the lifespan of the control animals.
Statistical analyses were performed in Microsoft Excel (Microsoft Corporation) and Prism (GraphPad Software). The statistical significance for all experiments was determined with one way ANOVA and Dunnett test. Kaplan-Meier statistical analysis was used for the calculation of the survival rates of different groups of mice, each containing 8 animals, and P-values were calculated with the log rank test. […]

in vivo = details: C57BL/6, mouse, brain and plasma, iv
Protocol: The brain samples were homogenized through ultrasonication in saline before the extraction procedure. The collected supernatant was dried under nitrogen gas, reconstituted in acetonitrile, and divided into aliquots that were loaded onto the LC-MS/MS system. […] The mobile phase for measurement of all compounds was phase A (0.1% formic acid in water) and phase B (0.1% formic acid in acetonitrile): 0–3 min/2%–10% B; 3–8 min/10%–60% B; 8–13 min/60%–90% B; 13–14 min/90%–2% B; and 14–15 min/2% B. The column and auto-sampler temperatures were maintained at 40 °C and 4 °C, respectively. Data were analyzed in Agilent MassHunter workstation software vB.01.03 (Agilent Technologies, Inc.). […] The amounts of the 2 drugs in the plasma and brain samples collected from mice were quantified by using standard and linear least-squares regression curves through calculation of the area under curve (AUC).
PK analysis was performed with PKSolver (Microsoft Corporation)[15]. […] PK analysis was performed through non-compartmental analysis according to Bailer’s method[16].
The percentage penetration of a drug into the brain was expressed as brain AUC0-72hr /plasma AUC0-72hr.

plasma albumin = plasma albumin (Homo sapiens, UniProt P02768); experiment: Bio-layer interferometry analysis; format: binding; details: BLI, biotinylated albumin
plasma albumin, sequence (P02768 25-609): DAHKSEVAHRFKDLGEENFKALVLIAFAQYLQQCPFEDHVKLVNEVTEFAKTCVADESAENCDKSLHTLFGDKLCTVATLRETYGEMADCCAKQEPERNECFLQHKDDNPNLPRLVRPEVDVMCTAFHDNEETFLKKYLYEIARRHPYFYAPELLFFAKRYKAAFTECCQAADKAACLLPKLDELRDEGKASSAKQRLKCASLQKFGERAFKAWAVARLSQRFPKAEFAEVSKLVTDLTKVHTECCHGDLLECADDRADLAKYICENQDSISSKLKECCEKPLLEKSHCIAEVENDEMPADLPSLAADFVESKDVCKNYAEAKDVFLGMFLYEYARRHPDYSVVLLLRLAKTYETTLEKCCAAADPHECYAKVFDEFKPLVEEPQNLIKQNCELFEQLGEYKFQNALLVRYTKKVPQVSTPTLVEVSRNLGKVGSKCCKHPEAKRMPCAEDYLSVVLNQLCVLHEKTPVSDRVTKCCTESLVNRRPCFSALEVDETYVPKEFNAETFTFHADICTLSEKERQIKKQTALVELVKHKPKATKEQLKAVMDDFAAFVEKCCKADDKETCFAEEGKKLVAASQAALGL
Protocol: Albumin was biotinylated with EZ-Link NHS-LC-LC-Biotin (Thermo Fisher Scientific, Waltham, MA, USA) for 30 min at room temperature and then added to a 96-well plate (Greiner Bio-One, PN:655209). Biotinylation was performed by loading the reaction complex onto a super streptavidin capacity probe (ForteìBIO, Menlo Park, CA, United States), and results were analyzed with a FortéBIO Octet Red instrument upon binding dPTX or HM. ForteìBIO data analysis software was used to calculate the association and dissociation kinetic constants.

P-gp, sequence (P08183 whole entry): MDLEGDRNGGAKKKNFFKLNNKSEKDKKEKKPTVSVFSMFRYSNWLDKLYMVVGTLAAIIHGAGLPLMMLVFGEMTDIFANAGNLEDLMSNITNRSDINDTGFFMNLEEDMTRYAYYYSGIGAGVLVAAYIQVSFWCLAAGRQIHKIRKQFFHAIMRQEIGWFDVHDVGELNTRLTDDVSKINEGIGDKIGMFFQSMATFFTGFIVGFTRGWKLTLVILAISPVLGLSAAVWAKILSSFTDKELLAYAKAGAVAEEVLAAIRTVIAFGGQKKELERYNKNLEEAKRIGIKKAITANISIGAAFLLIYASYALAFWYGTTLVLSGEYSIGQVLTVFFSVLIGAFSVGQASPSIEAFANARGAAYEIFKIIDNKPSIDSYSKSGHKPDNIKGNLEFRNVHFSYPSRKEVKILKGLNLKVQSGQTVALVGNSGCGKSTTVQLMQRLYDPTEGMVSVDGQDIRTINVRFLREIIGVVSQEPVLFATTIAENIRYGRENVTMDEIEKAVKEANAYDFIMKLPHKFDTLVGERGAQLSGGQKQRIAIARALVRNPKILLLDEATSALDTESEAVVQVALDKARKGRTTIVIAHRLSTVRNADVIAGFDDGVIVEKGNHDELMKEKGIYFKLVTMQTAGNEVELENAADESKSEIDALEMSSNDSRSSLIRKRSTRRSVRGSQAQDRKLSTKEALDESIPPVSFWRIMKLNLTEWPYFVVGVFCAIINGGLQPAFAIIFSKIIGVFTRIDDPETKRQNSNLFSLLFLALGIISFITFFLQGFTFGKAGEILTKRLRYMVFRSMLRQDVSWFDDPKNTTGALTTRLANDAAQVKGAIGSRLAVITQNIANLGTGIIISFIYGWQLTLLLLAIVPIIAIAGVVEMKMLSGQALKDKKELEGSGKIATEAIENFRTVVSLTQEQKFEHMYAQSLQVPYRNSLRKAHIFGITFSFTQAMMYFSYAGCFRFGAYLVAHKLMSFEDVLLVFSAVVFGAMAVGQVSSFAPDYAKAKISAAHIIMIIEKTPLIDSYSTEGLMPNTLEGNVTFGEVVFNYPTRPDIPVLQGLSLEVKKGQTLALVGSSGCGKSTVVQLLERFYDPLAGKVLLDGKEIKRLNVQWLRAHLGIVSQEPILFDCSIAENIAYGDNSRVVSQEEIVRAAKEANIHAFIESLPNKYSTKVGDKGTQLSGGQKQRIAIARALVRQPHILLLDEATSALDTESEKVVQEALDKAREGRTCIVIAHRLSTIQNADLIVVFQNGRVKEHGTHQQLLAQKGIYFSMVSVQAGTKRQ

SMILES | potency in inhibiting the transepithelial transport of PTX (P-gp) | AUC 0-t/0-inf_obs ratio [1] [%] | potency in inhibiting P-gp-mediated transport of Rho123, relative to XR9576 (Tariquidar) (ABCB1) | AUC(0-t) ([2]; read-out: area under the curve (AUC0-t)) [ng·h/mL] | half-life ([2]; read-out: half-life (t1/2)) [h] | MST (median survival time) ([3]; PTX 5 mg/kg i.v. q4d×5, no HM) | ILS (increase in lifespan) ([3]; PTX 5 mg/kg) [%] | MST (median survival time) ([3]; PTX 10 mg/kg i.v. q4d×5, no HM) | ILS (increase in lifespan) ([3]; PTX 10 mg/kg) [%] | Kp at 0.5 h (in vivo) | Kp (in vivo; 10 mg/kg) | Kd (plasma albumin)
COc1cc2c(cc1OC)CN(CCc1ccc(-n3nnc(-c4cc(OC)c(OC)cc4NC(=O)c4cc(=O)c5ccccc5o4)n3)cc1)CC2 [HM, HM30181A] | highest potency | 96 | ~ 24 times | 4750 to 9760 | 18.7 to 40.6 | – | – | – | – | – | – | –
CC(=O)O[C@H]1C(=O)[C@@]2(C)[C@H]([C@H](OC(=O)c3ccccc3)[C@]3(O)C[C@H](OC(=O)[C@H](O)[C@@H](NC(=O)c4ccccc4)c4ccccc4)C(C)=C1C3(C)C)[C@]1(OC(C)=O)CO[C@@H]1C[C@@H]2O [PTX, Paclitaxel] | – | – | – | – | – | 33 day and 33 (30~38) day | 0 | 35 day and 35 (30~38) day | 6 | 0.46 | 0.29 | 43.3 µM and 43 µM
